Assays:
Settings in all cases: incubation time: 72 h
HCC1143 [1] = assay: normalised response (% of control), CellTox Green; higher = less cell death (100 = DMSO, 0 = benzethonium chloride kill control)
In short: (§1)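 Every value is a normalised signal taken at one concentration of a dilution series. Compound was placed in 384-well plates at 5 concentrations in 10-fold steps over a compound-specific 10,000-fold range, and 20 µl of breast cancer cell suspension was seeded onto it. After 72 h, CellTox Green fluorescence (485/520 nm) was measured first and CellTiter-Glo luminescence second, following 10 min at room temperature. Each plate was scaled to 0.1 % DMSO (100) and a positive kill control (0).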

MCF-10A [2] = assay: as above
In short: as §1

CAL-120 [3] = assay: as above
In short: as §1

MDA-MB-231 [4] = assay: as above
In short: as §1

CAL-85-1 [5] = assay: as above
In short: as §1

HCC1599 [6] = assay: as above
In short: as §1

MDA-MB-453 [7] = assay: as above
In short: as §1

MFM-223 [8] = assay: as above
In short: as §1

BT-474 [9] = assay: as above
In short: as §1

MDA-MB-436 [10] = assay: as above
In short: as §1

BT-549 [11] = assay: as above
In short: as §1

HDQ-P1 [12] = assay: as above
In short: as §1

MDA-MB-468 [13] = assay: as above
In short: as §1

DU-4475 [14] = assay: as above
In short: as §1

CAL-51 [15] = assay: as above
In short: as §1

CAL-148 [16] = assay: as above
In short: as §1

HCC1143 [17] = assay: normalised response (% of control), CellTiter-Glo; higher = more viable cells (100 = DMSO, 0 = benzethonium chloride kill control)
Method: (§2)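 DSRT, 72 h incubation, CellTox Green / CellTiter-Glo readout. Signal is normalised to DMSO and benzethonium chloride controls. Value is the normalised response at dose 3.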

MCF-10A [18] = assay: as above
Method: as §2

CAL-120 [19] = assay: as above
Method: as §2

MDA-MB-231 [20] = assay: as above
Method: as §2

CAL-85-1 [21] = assay: as above
Method: as §2

HCC1599 [22] = assay: as above
Method: as §2

SK-BR-3 = assay: as above
Method: as §2

MDA-MB-453 [23] = assay: as above
Method: as §2

Hs578T [24] = assay: as above
Method: as §2

MFM-223 [25] = assay: as above
Method: as §2

BT-474 [26] = assay: as above
Method: as §2

MDA-MB-436 [27] = assay: as above
Method: as §2

BT-549 [28] = assay: as above
Method: as §2

HDQ-P1 [29] = assay: as above
Method: as §2

MDA-MB-468 [30] = assay: as above
Method: as §2

DU-4475 [31] = assay: as above
Method: as §2

CAL-51 [32] = assay: as above
Method: as §2

HCC1937 [33] = assay: as above
Method: as §2

CAL-148 [34] = assay: as above
Method: as §2

HCC1937 [35] = assay: normalised response (% of control), CellTox Green; higher = less cell death (100 = DMSO, 0 = benzethonium chloride kill control)
In short: as §1

Hs578T [36] = assay: as above
In short: as §1

| Compound | normalised response (HCC1143 [1]) | normalised response (MCF-10A [2]) | normalised response (CAL-120 [3]) | normalised response (MDA-MB-231 [4]) | normalised response (CAL-85-1 [5]) | normalised response (HCC1599 [6]) | normalised response (MDA-MB-453 [7]) | normalised response (MFM-223 [8]) | normalised response (BT-474 [9]) | normalised response (MDA-MB-436 [10]) | normalised response (BT-549 [11]) | normalised response (HDQ-P1 [12]) | normalised response (MDA-MB-468 [13]) | normalised response (DU-4475 [14]) | normalised response (CAL-51 [15]) | normalised response (CAL-148 [16]) | normalised response (HCC1143 [17]) | normalised response (MCF-10A [18]) | normalised response (CAL-120 [19]) | normalised response (MDA-MB-231 [20]) | normalised response (CAL-85-1 [21]) | normalised response (HCC1599 [22]) | normalised response (SK-BR-3) | normalised response (MDA-MB-453 [23]) | normalised response (Hs578T [24]) | normalised response (MFM-223 [25]) | normalised response (BT-474 [26]) | normalised response (MDA-MB-436 [27]) | normalised response (BT-549 [28]) | normalised response (HDQ-P1 [29]) | normalised response (MDA-MB-468 [30]) | normalised response (DU-4475 [31]) | normalised response (CAL-51 [32]) | normalised response (HCC1937 [33]) | normalised response (CAL-148 [34]) | normalised response (HCC1937 [35]) | normalised response (Hs578T [36]) |
| --- | --- | --- | --- | --- | --- | --- | --- | --- | --- | --- | --- | --- | --- | --- | --- | --- | --- | --- | --- | --- | --- | --- | --- | --- | --- | --- | --- | --- | --- | --- | --- | --- | --- | --- | --- | --- | --- |
| CCc1cncnc1N1CCN(Cc2nc3ccc(C(F)(F)F)cc3[nH]2)CC1 (100 nM) | 118% | 86.4% | 96% | 105% | 99.3% | 99.1% | 87.5% | 106% | 97.9% | 99.8% | 83.3% | 96% | 108% | 101% | 86.3% | 108% | 107% | 108% | 109% | 110% | 95.8% | 99.9% | 107% | 106% | 109% | 110% | 105% | 108% | 92.9% | 97.7% | 106% | 106% | 88.2% | 98.6% | 116% |  |  |
| COc1cc2c(NC3CCN(C(C)C)CC3)nc(C3CCCCC3)nc2cc1OCCCN1CCCC1 [UNC0638] (100 nM) | 107% | 98.3% | 100% | 102% | 111% | 101% | 99.2% | 102% | 101% | 94.6% | 63.7% | 102% | 119% | 97.4% | 99.5% | 96.8% | 100% | 88% | 101% | 92.2% | 98.8% | 80.8% | 80.1% | 92.7% | 97.4% | 88.6% | 94.1% | 102% | 101% | 97% | 83.8% | 86.5% | 97.3% | 92.2% | 88% |  |  |
| O=C(O)C(=O)O.[NH-][C@@H]1CCCC[C@H]1[NH-].[Pt+2] [Oxaliplatin] (100 nM) | 89.3% | 70% | 100% | 89.6% | 93.8% | 94.2% | 97.2% | 76.6% | 93% |  | 110% | 110% | 110% | 96.8% | 84.7% | 61.1% | 99% | 97.5% | 103% | 97.2% | 96.9% | 93% | 84.8% | 87.5% | 97.9% | 94.3% | 99% | 103% | 108% | 104% | 89.3% | 92.5% | 77% | 93.1% | 85.6% | 79.4% |  |
| Oc1ncc(N(CCCl)CCCl)c(O)n1 [Uracil mustard] (100 nM) | 113% | 114% | 106% | 118% | 114% | 102% | 110% | 102% | 104% | 109% | 111% |  | 154% | 108% | 109% | 103% | 100% | 101% | 103% | 100% | 96.7% | 95.5% | 101% | 95.5% | 102% | 104% | 106% | 98.9% | 105% | 104% | 94.6% | 99.1% | 110% | 98% | 100% | 88% | 111% |
| COc1cc2nccc(Oc3ccc(NC(=O)Nc4cc(C)on4)c(Cl)c3)c2cc1OC [Tivozanib] (100 nM) | 89% | 96.3% | 96.9% | 94.9% | 98.6% | 104% | 97.2% | 103% | 96% |  | 109% | 94.8% | 110% | 96.9% | 108% | 102% | 102% | 94.5% | 94.2% | 96.2% | 99.5% | 102% | 83.3% | 87.7% | 93.7% | 86.1% | 93% | 91.2% | 106% | 104% | 93.6% | 98.1% | 99.6% | 95.1% | 88.5% | 117% |  |
| C[C@H]1C[C@@H]2[C@H]([C@@H](O)C[C@@]3(C)[C@H]2CC[C@]3(O)C(=O)CO)[C@@]2(C)C=CC(=O)C=C12 [Methylprednisolone] (100 nM) | 90.4% | 101% | 103% | 140% | 102% | 110% | 76.2% | 78.2% | 98.9% | 89.9% | 103% |  | 169% | 102% | 111% | 107% | 108% | 106% | 76.9% | 156% | 115% | 97.9% | 104% | 99.9% | 107% | 109% | 152% | 104% | 101% | 90.5% | 111% | 108% | 86.4% | 98.3% | 109% | 115% | 89% |
